Biological target: T1, SIRT1 (Homo sapiens, UniProt Q96EB6)
T1 sequence (Q96EB6 1-747): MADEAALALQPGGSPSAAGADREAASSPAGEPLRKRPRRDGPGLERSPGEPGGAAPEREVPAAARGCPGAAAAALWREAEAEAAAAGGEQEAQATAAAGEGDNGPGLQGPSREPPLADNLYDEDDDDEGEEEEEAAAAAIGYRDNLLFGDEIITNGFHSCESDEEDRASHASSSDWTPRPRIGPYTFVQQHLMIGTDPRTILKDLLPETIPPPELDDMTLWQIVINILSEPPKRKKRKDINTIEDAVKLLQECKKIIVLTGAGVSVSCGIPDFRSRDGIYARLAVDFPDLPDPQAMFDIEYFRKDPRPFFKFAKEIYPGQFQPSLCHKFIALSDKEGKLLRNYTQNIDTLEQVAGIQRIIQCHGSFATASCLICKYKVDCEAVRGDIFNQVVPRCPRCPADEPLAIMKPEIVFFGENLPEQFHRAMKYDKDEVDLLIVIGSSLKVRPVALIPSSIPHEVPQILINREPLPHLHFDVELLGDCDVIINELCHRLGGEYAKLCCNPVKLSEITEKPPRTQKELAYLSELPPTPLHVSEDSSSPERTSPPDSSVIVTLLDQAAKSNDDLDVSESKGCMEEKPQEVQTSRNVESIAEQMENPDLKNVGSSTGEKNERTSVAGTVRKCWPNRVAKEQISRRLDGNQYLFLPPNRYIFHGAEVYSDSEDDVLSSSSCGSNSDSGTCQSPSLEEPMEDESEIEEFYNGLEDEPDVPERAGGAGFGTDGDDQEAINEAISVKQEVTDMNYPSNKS
Assay: Trp mass spectrometry assay (SIRT1 activation)
Assay type: biochemical
Settings: Trp mass spectrometry assay; for Emax: percent maximum fold activation of SIRT1, read-out: Tryp % Fold Act; for Tryp AVG EC1.5 (μM): EC1.5 = concentration of test compound that results in 150% activation of SIRT1
Excerpt: Mass spectrometry based assays were used to identify modulators of SIRT1 activity. […] The peptide was labeled with the fluorophore 5TMR (excitation 540 nm/emission 580 nm) at the C-terminus. The sequence of the peptide substrate was based on p53 with several modifications. In addition, the methionine residue naturally present in the sequence was replaced with the norleucine because the methionine may be susceptible to oxidation during synthesis and purification. The Trp based assay utilized a peptide having an amino acid residues as follows: Ac-R-H-K-K(Ac)-W-NH2 (SEQ ID NO: 2).
The Trp mass spectrometry assay was conducted as follows. 0.5 μM peptide substrate and 120 μM βNAD^+ were incubated with 10 nM SIRT1 for 25 minutes at 25° C. in a reaction buffer (50 mM HEPES pH 7.5, […] NaCl, 1 mM DTT, 0.05% BSA). The SIRT1 protein was obtained by cloning the SirT1 gene into a T7-promoter containing vector, which was then expressed in BL21(DE3) bacterial cells and purified as described in further detail below. Test compound was added at varying concentrations to this reaction mixture and the resulting reactions were monitored. After the 25 minute incubation with SIRT1, 10 μL of 10% formic acid was added to stop the reaction. The resulting reactions were sealed and frozen for later mass spec analysis. The relative SIRT1 activity was then determined by measuring the amount of 0-acetyl-ADP-ribose (OAADPR) formed (or, alternatively, the amount of deacetylated Trp peptide generated) by the NAD-dependent sirtuin deacetylation reaction in the presence of varying concentrations of the test compound versus control reactions lacking the test compound. The degree to which the test agent activated deacetylation by SIRT1 was expressed as EC1.5 (i.e., the concentration of compound required to increase SIRT1 activity by 50% over the control lacking test compound), and Percent Maximum Activation (i.e., the maximum activity relative to control (100%) obtained for the test compound).
A control for activation of sirtuin activity was conducted using 10 nM of sirtuin protein, with 1 μL of DMSO in place of compound, to determine the amount of deacetylation of the substrate at a given time point within the linear range of the assay. This time point was the same as that used for test compounds and, within the linear range, the endpoint represents a change in velocity.
For the above assay, SIRT1 protein was expressed and purified as follows. The SirT1 gene was cloned into a T7-promoter containing vector and transformed into BL21(DE3). The protein was expressed by induction with 1 mM IPTG as an N-terminal His-tag fusion protein at 18° C. overnight and harvested at 30,000×g. Cells were lysed with lysozyme in lysis buffer (50 mM Tris-HCl, 2 mM Tris[2-carboxyethyl] phosphine (TCEP), 10 μM ZnCl2, 200 mM NaCl) and further treated with sonication for 10 min for complete lysis. The protein was purified over a Ni-NTA column (Amersham) and fractions containing pure protein were pooled, concentrated and run over a sizing column (Sephadex S200 26/60 global). The peak containing soluble protein was collected and run on an Ion-exchange column (MonoQ). Gradient elution (200 mM-500 mM NaCl) yielded pure protein. This protein was concentrated and dialyzed against dialysis buffer (20 mM Iris-HCl, 2 mM TCEP) overnight. The protein was aliquoted and frozen at −80° C. until further use.

Row | Structure (SMILES) | Emax [%] | Tryp AVG EC1.5 (μM)
1 | COc1nccc(NC(=O)N2c3nc(-c4cccc(Cl)c4)ccc3N3CC[C@H]2C3)n1 [Example 50] | ≥ 150 | –
2 | CCN(CC)C(=O)N1c2nc(-c3cccc(C(F)(F)F)c3)ccc2N2CC[C@H]1C2 [Example 52] | < 150 | C (EC1.5>25 μM)
3 | O=C(Nc1cc(OCC(O)CO)ccn1)N1c2nc(-c3cccc(C(F)(F)F)c3)ccc2N2CC[C@H]1C2 (stereo partly drawn) [Example 53] | ≥ 150 | –
4 | O=C(Nc1ccnc(OCC(O)CO)n1)N1c2nc(-c3cccc(Cl)c3)ccc2N2CC[C@H]1C2 (stereo partly drawn) [Example 54] | ≥ 150 | –
5 | Cc1cc(OCC(O)CO)nc(NC(=O)N2c3nc(-c4cccc(Cl)c4)ccc3N3CC[C@H]2C3)n1 (stereo partly drawn) [Example 55] | ≥ 150 | –
6 | O=C(Nc1ccccn1)N1c2nc(-c3cccc(F)c3)ccc2N2CC[C@H]1C2 [Example 57] | ≥ 150 | –
7 | O=C(Nc1ccc(F)cn1)N1c2nc(-c3cccc(F)c3)ccc2N2CC[C@H]1C2 [Example 59] | ≥ 150 | –
8 | COc1nccc(NC(=O)N2c3nc(-c4cccc(F)c4)ccc3N3CC[C@H]2C3)n1 [Example 60] | ≥ 150 | –
9 | O=C(Nc1cncc(OCC(O)CO)n1)N1c2nc(-c3cccc(Cl)c3)ccc2N2CC[C@H]1C2 (stereo partly drawn) [Example 63] | ≥ 150 | –
10 | Cc1cc(OCC(O)CO)nc(NC(=O)N2c3nc(-c4cccc(F)c4)ccc3N3CC[C@H]2C3)n1 (stereo partly drawn) [Example 64] | ≥ 150 | –
11 | O=C(Nc1ccnc(OCC(O)CO)n1)N1c2nc(-c3cccc(F)c3)ccc2N2CC[C@H]1C2 (stereo partly drawn) [Example 65] | ≥ 150 | –
12 | O=C(Nc1ccnc(OC[C@H](O)CO)c1)N1c2nc(-c3cccc(Cl)c3)ccc2N2CC[C@H]1C2 [Example 66] | ≥ 150 | –
13 | CC(C)c1cccc(C(C)C)c1NC(=O)N1c2nc(-c3cccc(C(F)(F)F)c3)ccc2N2CC[C@H]1C2 [Example 67] | < 150 | –
14 | CCc1cccc(C)c1NC(=O)N1c2nc(-c3cccc(C(F)(F)F)c3)ccc2N2CC[C@H]1C2 [Example 69] | < 150 | –
15 | CC(C)(C)c1ccccc1NC(=O)N1c2nc(-c3cccc(C(F)(F)F)c3)ccc2N2CC[C@H]1C2 [Example 70] | < 150 | –
16 | CCc1cccc(CC)c1NC(=O)N1c2nc(-c3cccc(C(F)(F)F)c3)ccc2N2CC[C@H]1C2 [Example 71] | < 150 | –
17 | O=C(Nc1ccnc(OC[C@H](O)CO)c1)N1c2nc(-c3cccc(F)c3)ccc2N2CC[C@H]1C2 [Example 73] | ≥ 150 | –
18 | CC(=O)c1cc(F)c(NC(=O)N2c3nc(-c4cccc(C(F)(F)F)c4)ccc3N3CC[C@H]2C3)c(F)c1 [Example 78] | ≥ 150 | –
19 | Cc1cnc(NC(=O)N2c3nc(-c4cccc(C(F)(F)F)c4)ccc3N3CC[C@H]2C3)nc1-c1ccccc1 [Example 79] | ≥ 150 | –
20 | Cc1csc2nc(NC(=O)N3c4nc(-c5cccc(C(F)(F)F)c5)ccc4N4CC[C@H]3C4)nn12 [Example 80] | ≥ 150 | –
21 | O=C(Nc1cccc2nccnc12)N1c2nc(-c3cccc(C(F)(F)F)c3)ccc2N2CC[C@H]1C2 [Example 83] | ≥ 150 | A (EC1.5<1 μM)
22 | O=C(Nc1ccccn1)N1c2nc(-c3cccc(C(F)(F)F)c3)ccc2N2CC(O)C1C2 (stereo not drawn) [Example 85] | ≥ 150 | –
23 | Cc1cc2c(NC(=O)N3c4nc(-c5cccc(C(F)(F)F)c5)ccc4N4CC[C@H]3C4)cccc2nn1 [Example 86] | ≥ 150 | –
24 | O=C(Nc1nc2ccccc2s1)N1c2nc(-c3cccc(C(F)(F)F)c3)ccc2N2CC[C@H]1C2 [Example 90] | ≥ 150 | A (EC1.5<1 μM)
25 | Cc1cc(C(F)(F)F)nc(NC(=O)N2c3nc(-c4cccc(C(F)(F)F)c4)ccc3N3CC[C@H]2C3)n1 [Example 94] | ≥ 150 | B (EC1.5 1-25 μM)

Second part, the molecule after the results:

Row | Emax [%] | Tryp AVG EC1.5 (μM) | Structure (SMILES)
26 | ≥ 150 | – | Cc1nc(NC(=O)N2c3nc(-c4cccc(C(F)(F)F)c4)ccc3N3CC[C@H]2C3)sc1C [Example 48]
27 | ≥ 150 | – | Cn1cc(NC(=O)N2c3nc(-c4cccc(C(F)(F)F)c4)ccc3N3CC[C@H]2C3)cn1 [Example 49]
28 | ≥ 150 | – | CC(C)NC(=O)N1c2nc(-c3cccc(C(F)(F)F)c3)ccc2N2CC[C@H]1C2 [Example 51]
29 | ≥ 150 | – | Cc1csc(NC(=O)N2c3nc(-c4cccc(C(F)(F)F)c4)ccc3N3CC[C@H]2C3)n1 [Example 56]
30 | ≥ 150 | – | O=C(Nc1cccnn1)N1c2nc(-c3cccc(F)c3)ccc2N2CC[C@H]1C2 [Example 58]
31 | ≥ 150 | – | Cc1cc(NC(=O)N2c3nc(-c4cccc(C(F)(F)F)c4)ccc3N3CC[C@H]2C3)ccn1 [Example 61]
32 | ≥ 150 | – | Cc1cnccc1NC(=O)N1c2nc(-c3cccc(F)c3)ccc2N2CC[C@H]1C2 [Example 62]
33 | ≥ 150 | – | CC(C)(C)c1csc(NC(=O)N2c3nc(-c4cccc(C(F)(F)F)c4)ccc3N3CC[C@H]2C3)n1 [Example 72]
34 | ≥ 150 | – | O=C(Nc1ccncc1F)N1c2nc(-c3cccc(F)c3)ccc2N2CC[C@H]1C2 [Example 74]
35 | ≥ 150 | A (EC1.5<1 μM) | CC(=O)c1sc(NC(=O)N2c3nc(-c4cccc(C(F)(F)F)c4)ccc3N3CC[C@H]2C3)nc1C [Example 75]
36 | ≥ 150 | B (EC1.5 1-25 μM) | COc1ccc(C)nc1NC(=O)N1c2nc(-c3cccc(C(F)(F)F)c3)ccc2N2CC[C@H]1C2 [Example 77]
37 | ≥ 150 | – | O=C(Nc1cc[nH]c(=O)n1)N1c2nc(-c3cccc(C(F)(F)F)c3)ccc2N2CC[C@H]1C2 [Example 82]
38 | < 150 | – | Cc1ccc2ncccc2c1NC(=O)N1c2nc(-c3cccc(C(F)(F)F)c3)ccc2N2CC[C@H]1C2 [Example 84]
39 | ≥ 150 | A (EC1.5<1 μM) | Cn1ncc2cc(NC(=O)N3c4nc(-c5cccc(C(F)(F)F)c5)ccc4N4CC[C@H]3C4)ccc21 [Example 87]
40 | ≥ 150 | B (EC1.5 1-25 μM) | Cc1nc(NC(=O)N2c3nc(-c4cccc(C(F)(F)F)c4)ccc3N3CC[C@H]2C3)nc2c1CCC2 [Example 91]
41 | ≥ 150 | B (EC1.5 1-25 μM) | Cc1nn(C)cc1NC(=O)N1c2nc(-c3cccc(C(F)(F)F)c3)ccc2N2CC[C@H]1C2 [Example 92]
42 | ≥ 150 | A (EC1.5<1 μM) | O=C1OCc2ccc(NC(=O)N3c4nc(-c5cccc(C(F)(F)F)c5)ccc4N4CC[C@H]3C4)cc21 [Example 93]
43 | ≥ 150 | A (EC1.5<1 μM) | O=C(Nc1ccc2c(c1)OCCCO2)N1c2nc(-c3cccc(C(F)(F)F)c3)ccc2N2CC[C@H]1C2 [Example 95]
44 | ≥ 150 | B (EC1.5 1-25 μM) | O=C(Nc1ccncc1Cl)N1c2nc(-c3cccc(C(F)(F)F)c3)ccc2N2CC[C@H]1C2 [Example 96]
45 | ≥ 150 | B (EC1.5 1-25 μM) | O=C(Nc1ccncn1)N1c2nc(C3CCCC(C(F)(F)F)C3)ccc2N2CC[C@H]1C2 (stereo partly drawn) [Example 98]
46 | ≥ 150 | A (EC1.5<1 μM) | O=C(Nc1cccnc1)N1c2nc(C3CCCC(C(F)(F)F)C3)ccc2N2CC[C@H]1C2 (stereo partly drawn) [Example 99]
